Consider 11 compounds from patent publication US6221914A, “Sulfonamide bridging compounds that inhibit tryptase activity” (Array Biopharma Inc., priority 1998, dated 2001).

What all share (assay type): biochemical
In experiment [1] the target is T1, Bovine pancreatic Trypsin (Bos taurus, UniProt P00760).
T1 construct: from tissue; host or cells: bovine pancreas
T1 sequence (P00760 24-246): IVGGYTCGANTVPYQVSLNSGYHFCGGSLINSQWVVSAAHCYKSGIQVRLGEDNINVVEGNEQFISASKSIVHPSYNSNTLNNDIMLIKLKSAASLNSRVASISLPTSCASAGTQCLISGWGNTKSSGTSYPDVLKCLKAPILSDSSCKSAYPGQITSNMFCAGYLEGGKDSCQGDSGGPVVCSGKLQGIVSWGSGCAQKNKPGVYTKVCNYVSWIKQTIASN
As to the kind of experiment: Ki determination, bovine pancreatic trypsin (N-a-Benzoyl-L-Arg-pNA). The note with it: 50 mM Tris-HCl, pH 8.2, 20 mM CaCl2; read-out: Experimentally Determined Ki, Trypsin. A digest of the protocol:
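TPCK-treated bovine trypsin was preincubated with compound for 15 min at 37° C in 50 mM Tris-HCl pH 8.2, 20 mM CaCl2, then N-a-Benzoyl-L-Arg-pNA was added and p-nitroaniline read at 405 nm. Ki came from the tight-binding equation, with [E]o from active-site titration and a substrate correction, or from competitive-inhibitor equations when Ki >>[E]o.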

The next experiment addresses T2, Human plasma thrombin (Homo sapiens, UniProt P00734).
T2 construct: from tissue; host or cells: human plasma
As to the kind of experiment: Ki determination, human plasma thrombin (H-D-Phe-Pip-Arg-pNA). Particulars: 50 mM Tris-HCl, pH 8.3, 100 mM NaCl, 1% BSA; read-out: Experimentally Determined Ki, Thrombin. The method, boiled down:
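Plasma thrombin preincubated with compound 15 min at 37 °C in 50 mM Tris-HCl pH 8.3, 100 mM NaCl, 1% BSA, then H-D-Phe-Pip-Arg-pNA added; p-nitroaniline release read at 405 nm. Ki from tight-binding equation (active-site-titrated enzyme) corrected for substrate, or competitive-inhibitor equation when Ki >> [E]o.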

For another experiment, the target named is T3, Human plasma factor Xa (Homo sapiens, UniProt P00742).
T3 construct: from tissue; host or cells: human plasma
T3 sequence (P00742 235-488 limits assumed): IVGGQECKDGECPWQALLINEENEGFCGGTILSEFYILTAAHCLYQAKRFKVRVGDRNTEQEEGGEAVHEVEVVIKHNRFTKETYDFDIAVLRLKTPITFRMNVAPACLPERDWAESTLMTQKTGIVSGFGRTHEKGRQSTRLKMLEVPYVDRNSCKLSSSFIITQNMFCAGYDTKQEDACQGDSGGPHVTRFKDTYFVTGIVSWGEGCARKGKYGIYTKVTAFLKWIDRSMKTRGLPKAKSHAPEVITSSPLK
T3 sequence (P00742 41-179 partner limits assumed): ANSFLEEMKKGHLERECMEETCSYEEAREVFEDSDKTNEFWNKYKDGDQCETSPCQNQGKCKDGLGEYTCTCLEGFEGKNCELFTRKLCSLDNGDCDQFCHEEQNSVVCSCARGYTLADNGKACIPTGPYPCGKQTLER
As to the kind of experiment: Ki determination, human plasma factor Xa (N-Benzoyl-Ile-Glu-Gly-Arg-pNA). The note with it: 50 mM Tris-HCl, pH 7.8, 200 mM NaCl, 0.05% BSA; read-out: Experimentally Determined Ki, Factor Xa. A digest of the protocol: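 Enzyme preincubated with compound 15 min at 37° C in 50 mM Tris-HCl pH 7.8, 200 mM NaCl, 0.05% BSA, then N-Benzoyl-Ile-Glu-Gly-Arg-pNA added and p-nitroaniline read at 405 nm. Ki from tight-binding equation with active-site-titrated enzyme, corrected for substrate, or from competitive-inhibitor equations when Ki >> [E]o.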

In a further experiment the target is r-tissue kallikrein (Homo sapiens, UniProt P06870). Nature of the experiment: Ki determination, r-tissue kallikrein (DL-Val-Leu-Arg-pNA). The note with it: 50 mM Tris-HCl, pH 7.8, 200 mM NaCl, 0.05% BSA; read-out: Experimentally Determined Ki, Tissue Kallikrein. The method, boiled down:
(§1)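 Enzyme preincubated with test compound 15 min at 37° C in 50 mM Tris-HCl pH 7.8, 200 mM NaCl, 0.05% BSA; residual activity read at 405 nm after adding H-D-Prolyl-Phe-Arg-pNA (plasma) or DL-Val-Leu-Arg-pNA (tissue). Ki from tight-binding equation (enzyme active-site titrated) corrected for substrate, or competitive-inhibitor equation when Ki >>[E]o.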

The target in a further experiment is T4, Human plasma kallikrein (Homo sapiens, UniProt P03952).
T4 construct: from tissue; host or cells: human plasma
T4 sequence (P03952 391-638 limits assumed): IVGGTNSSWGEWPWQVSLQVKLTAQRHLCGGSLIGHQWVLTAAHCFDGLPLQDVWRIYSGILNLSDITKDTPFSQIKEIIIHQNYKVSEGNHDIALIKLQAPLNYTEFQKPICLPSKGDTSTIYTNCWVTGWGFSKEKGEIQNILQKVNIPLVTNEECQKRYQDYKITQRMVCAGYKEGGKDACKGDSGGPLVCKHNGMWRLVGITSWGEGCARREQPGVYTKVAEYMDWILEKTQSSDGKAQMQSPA
T4 sequence (P03952 20-390 partner limits assumed): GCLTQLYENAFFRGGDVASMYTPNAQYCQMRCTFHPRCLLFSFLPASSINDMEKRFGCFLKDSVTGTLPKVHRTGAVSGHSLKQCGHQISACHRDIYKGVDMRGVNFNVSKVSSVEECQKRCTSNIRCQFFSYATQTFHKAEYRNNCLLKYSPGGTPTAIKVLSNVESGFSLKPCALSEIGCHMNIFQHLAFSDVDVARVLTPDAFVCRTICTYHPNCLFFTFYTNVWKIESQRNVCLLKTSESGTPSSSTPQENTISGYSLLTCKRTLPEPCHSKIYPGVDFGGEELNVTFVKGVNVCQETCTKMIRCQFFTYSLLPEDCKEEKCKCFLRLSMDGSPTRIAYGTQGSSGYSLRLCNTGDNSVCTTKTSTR
As to the kind of experiment: Ki determination, human plasma kallikrein (H-D-Prolyl-Phe-Arg-pNA). The note with it: 50 mM Tris-HCl, pH 7.8, 200 mM NaCl, 0.05% BSA; read-out: Experimentally Determined Ki, Plasma Kallikrein. A digest of the protocol:
as §1

Another experiment has as its target T5, Human plasma plasmin (Homo sapiens, UniProt P00747).
T5 construct: from tissue; host or cells: human plasma
Nature of the experiment: Ki determination, human plasma plasmin (Tosyl-Gly-Pro-Lys-pNA). The note with it: 100 mM Tris-HCl, pH 7.4, 100 mM NaCl, 0.05% Triton X-100; read-out: Experimentally Determined Ki, Plasmin. A digest of the protocol: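 Enzyme preincubated with inhibitor 15 min at 37° C. in 100 mM Tris-HCl pH 7.4, 100 mM NaCl, 0.05% Triton X-100, then Tosyl-Gly-Pro-Lys-pNA added; p-nitroaniline release followed at 405 nm. Ki from tight-binding equation (active-site-titrated [E]o), corrected for substrate, or competitive-inhibitor equation when Ki >>[E]o.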

Experiment [2] deals with T6, Human Neutrophil Cathepsin G (Homo sapiens, UniProt P08311).
T6 construct: from tissue; host or cells: human neutrophils
T6 sequence (P08311 21-255): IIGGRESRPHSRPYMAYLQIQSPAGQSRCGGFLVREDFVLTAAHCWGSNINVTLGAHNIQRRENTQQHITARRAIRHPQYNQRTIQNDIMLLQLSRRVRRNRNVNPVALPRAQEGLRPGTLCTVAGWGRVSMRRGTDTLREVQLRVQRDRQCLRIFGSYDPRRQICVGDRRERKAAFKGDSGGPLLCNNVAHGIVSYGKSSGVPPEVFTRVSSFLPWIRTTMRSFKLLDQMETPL
Nature of the experiment: Ki determination, human neutrophil cathepsin G (N-Suc-Ala-Ala-Pro-Phe-pNA). The note with it: 625 mM Tris-HCl, pH 7.5, 2.5 mM MgCl2, 0.125% Brij 35; read-out: Experimentally Determined Ki, Cathepsin G. A digest of the protocol: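 Cathepsin G preincubated with test compound 15 min at 37° C, then N-Suc-Ala-Ala-Pro-Phe-pNA added in 625 mM Tris-HCl pH 7.5, 2.5 mM MgCl2, 0.125% Brij 35. p-Nitroaniline read at 405 nm.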

The target in experiment [3] is T7, Bovine Pancreatic Chymotrypsin (Bos taurus, UniProt P00766).
T7 construct: from tissue; host or cells: bovine pancreas
As to the kind of experiment: Ki determination, bovine pancreatic chymotrypsin (N-Suc-Ala-Ala-Pro-Phe-pNA). The note with it: 100 mM Tris-HCl, pH 7.8, 10 mM CaCl2; read-out: Experimentally Determined Ki, Chymotrypsin. A digest of the protocol:
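Enzyme was preincubated with test compound for 15 min at 37° C before N-Suc-Ala-Ala-Pro-Phe-pNA was added, in 100 mM Tris-HCl, pH 7.8, 10 mM CaCl2. p-Nitroaniline release was read at 405 nm. Ki came from the tight-binding equation with [E]o set by active-site titration and corrected for substrate, or from competitive-inhibitor equations when Ki >>[E]o.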

Chain of r-tissue kallikrein (P06870 25-262): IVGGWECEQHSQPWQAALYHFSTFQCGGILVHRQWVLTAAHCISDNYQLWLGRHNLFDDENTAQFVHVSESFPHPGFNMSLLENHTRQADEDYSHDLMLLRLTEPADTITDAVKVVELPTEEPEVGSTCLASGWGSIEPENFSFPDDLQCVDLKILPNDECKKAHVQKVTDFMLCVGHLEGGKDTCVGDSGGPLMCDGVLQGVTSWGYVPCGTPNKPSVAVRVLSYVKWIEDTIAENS
T5 sequence (P00747 581-810 limits assumed): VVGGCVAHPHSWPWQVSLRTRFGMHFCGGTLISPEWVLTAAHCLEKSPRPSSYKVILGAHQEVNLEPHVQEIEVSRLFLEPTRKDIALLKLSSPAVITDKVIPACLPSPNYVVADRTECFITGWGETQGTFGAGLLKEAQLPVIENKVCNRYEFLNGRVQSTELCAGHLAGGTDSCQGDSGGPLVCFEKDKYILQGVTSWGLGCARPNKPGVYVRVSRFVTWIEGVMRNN
T5 sequence (P00747 97-580 partner limits assumed): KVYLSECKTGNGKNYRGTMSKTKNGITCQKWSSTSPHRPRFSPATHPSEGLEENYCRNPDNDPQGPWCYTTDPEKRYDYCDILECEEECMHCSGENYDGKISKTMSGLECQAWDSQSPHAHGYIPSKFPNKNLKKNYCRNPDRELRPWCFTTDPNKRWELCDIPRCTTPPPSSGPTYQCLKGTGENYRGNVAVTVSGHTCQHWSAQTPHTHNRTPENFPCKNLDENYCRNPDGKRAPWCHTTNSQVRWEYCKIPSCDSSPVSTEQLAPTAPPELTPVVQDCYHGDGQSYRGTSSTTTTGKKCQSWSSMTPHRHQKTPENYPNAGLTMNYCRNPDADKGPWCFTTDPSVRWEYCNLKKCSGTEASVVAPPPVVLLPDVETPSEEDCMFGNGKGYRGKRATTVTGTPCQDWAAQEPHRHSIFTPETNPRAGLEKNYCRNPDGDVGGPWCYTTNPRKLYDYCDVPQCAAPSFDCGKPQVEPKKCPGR

On to `N=C(N)c1cccc(C(=O)NCc2ccc(OCCOc3ccc(CNC(=O)c4cccc(C(=N)N)c4)cc3)cc2)c1` [Example 65, 1,2-Bis-{4-[(3-carbamimidoyl-benzoylamino)-methyl]-phenoxy}-ethane], for which the Ki was 2.2 µM in experiment [1]; over 100 µM on Human plasma thrombin; 2.6 µM at Human plasma factor Xa; over 100 µM at r-tissue kallikrein; 24 µM on Human plasma kallikrein; 46 µM on Human plasma plasmin. The Ki in experiment [2] and in experiment [3] was over 100 µM each time.
`CN(Cc1ccc(OCCCOc2ccc(CN(C)S(=O)(=O)c3cccc(C(=N)N)c3)cc2)cc1)S(=O)(=O)c1cccc(C(=N)N)c1` [Example 68, 1,3-Bis-{4-[(3-carbamimidoyl-benzenesulfonyl-[N-methyl]-amino)-methyl]-phenoxy}-propane]: the inhibition constant Ki in experiment [1] was 3.2 µM; at Human plasma thrombin it was over 100 µM; at Human plasma factor Xa, 20 µM; at r-tissue kallikrein, over 100 µM; at Human plasma kallikrein, 4.3 µM; at Human plasma plasmin, 10 µM. In addition, the inhibition constant (Ki) in experiment [2] and in experiment [3] was over 100 µM each time.
For the compound `N=C(N)c1ccc(C(=O)NCc2cccc(OCCCCCOc3cccc(CNC(=O)c4ccc(C(=N)N)cc4)c3)c2)cc1` [Example 76, 1,5-Bis-{3-[(4-carbamimidoyl-benzenecarbonylamino)-methyl]-phenoxy}-pentane], the Ki in experiment [1] is 0.83 µM; on Human plasma thrombin it was 21 µM; on Human plasma factor Xa, over 100 µM; on r-tissue kallikrein, 5 µM; at Human plasma kallikrein it was 2.8 µM; on Human plasma plasmin, over 100 µM. Besides, the Ki in experiment [2] and in experiment [3] was over 100 µM throughout.
As for `N=C(N)c1cccc(C(=O)NCc2cccc(OCCCCCOc3cccc(CNC(=O)c4cccc(C(=N)N)c4)c3)c2)c1` [Example 77, 1,5-Bis-{3-[(3-carbamimidoyl-benzenecarbonylamino)-methyl]-phenoxy}-pentane], the Ki in experiment [1] is 1.4 µM; at Human plasma thrombin, over 100 µM; at Human plasma factor Xa, 1.9 µM; on r-tissue kallikrein, 32 µM; on Human plasma kallikrein, 2.9 µM; at Human plasma plasmin, 4.3 µM. Also, the inhibitory constant (Ki) in experiment [2] and in experiment [3] was over 100 µM each time.
For `N=C(N)c1ccc(C(=O)NCc2ccc(OCCCOc3ccc(CNC(=O)c4cccc(C(=N)N)c4)cc3)cc2)cc1` [Example 85, 4-Carbamimidoyl-N-[4-(3-{4-[(3-carbamimidoyl-benzoylamino)-methyl]-phenoxy}-propoxy)-benzyl]-benzamide], the Ki in experiment [1] was 1.1 µM; at Human plasma thrombin, over 100 µM; at Human plasma factor Xa it was 2.2 µM; on r-tissue kallikrein it was over 100 µM; on Human plasma kallikrein, 1.7 µM; on Human plasma plasmin, 5.2 µM. Also, the Ki in experiment [2] and in experiment [3] was over 100 µM throughout.
As for `N=C(N)c1ccc(C(=O)NCc2ccc(OCCCOc3ccc(CNS(=O)(=O)c4cccc(C(=N)N)c4)cc3)cc2)cc1` [Example 86, 4-Carbamimidoyl-N-[4-(3-{4-[(3-carbamimidoyl-benzenesulfonylamino)-methyl]-phenoxy}-propoxy)-benzyl]-benzamide], the Ki is 2.1 µM in experiment [1]; over 100 µM at Human plasma thrombin; 10 µM at Human plasma factor Xa; over 100 µM on r-tissue kallikrein; 1.4 µM at Human plasma kallikrein; 0.34 µM at Human plasma plasmin. Besides, the Ki in experiment [2] and in experiment [3] was over 100 µM in each case.
For the compound `N=C(N)c1ccc(C(=O)NCc2ccc(OCCCOc3ccc(CNC(=O)c4ccc(CN)cc4)cc3)cc2)cc1` [Example 87, N-[4-(3-{4-[(4-Aminomethyl-benzoylamino)-methyl]-phenoxy}-propoxy)-benzyl]-4-carbamimidoyl-benzamide], the Ki is 2.8 µM in experiment [1]; over 100 µM on Human plasma thrombin; 19 µM at Human plasma factor Xa; over 100 µM at r-tissue kallikrein; 3.5 µM at Human plasma kallikrein; 7.6 µM at Human plasma plasmin. In addition, the inhibitory constant (Ki) in experiment [2] and in experiment [3] was over 100 µM throughout.
On to `N=C(N)c1ccc(C(=O)NCc2ccc(OCC3(COc4ccc(CNC(=O)c5ccc(C(=N)N)cc5)cc4)CCC3)cc2)cc1` [Example 93, 1,1-Bis-{4-[(4-carbamimidoyl-benzoyl-amino)-methyl]-phenoxy-methyl}-cyclobutane], for which the Ki was 1.5 µM in experiment [1]; over 100 µM on Human plasma thrombin; 15 µM at Human plasma factor Xa; 14 µM on r-tissue kallikrein; 3.9 µM at Human plasma kallikrein; 6.7 µM at Human plasma plasmin. Besides, the Ki in experiment [2] and in experiment [3] was over 100 µM throughout.
For `N=C(N)c1ccc2cc(C(=O)NCc3ccc(OCCOc4ccc(CNC(=O)c5ccc6cc(C(=N)N)ccc6c5)cc4)cc3)ccc2c1` [Example 100, 1,2-Bis-{4-[(6-carbamimidoylnaphthalene-2-carbonylamino)-methyl]-phenoxy}-ethane], the Ki in experiment [1] was 0.15 µM; on Human plasma thrombin, over 100 µM; on Human plasma factor Xa, over 100 µM; at r-tissue kallikrein, over 100 µM; at Human plasma kallikrein, over 100 µM; at Human plasma plasmin, 0.74 µM. Also, the Ki in experiment [2] is over 100 µM; in experiment [3], 18 µM.
For the compound `N=C(N)c1ccc2[nH]c(CC(=O)NCc3ccc(OCCCOc4ccc(CNC(=O)Cc5nc6cc(C(=N)N)ccc6[nH]5)cc4)cc3)nc2c1` [Example 107, 2-(5-Carbamimidoyl-1H-benzoimidazol-2-yl)-N-{4,-[3-(4-{2-(5-carbamimidoyl-1H-benzoimidazol-2-yl)acetylaminol-methyl}-phenoxy)-propoxy]-benzyl}-acetamide], the Ki in experiment [1] is 4.8 µM; on Human plasma thrombin it was over 100 µM; at Human plasma factor Xa, 27 µM; at r-tissue kallikrein, over 100 µM; on Human plasma kallikrein, 12 µM; on Human plasma plasmin, 2.1 µM. In addition, the Ki was over 100 µM in experiment [2] and 26 µM in experiment [3].
As to `N=C(N)c1ccc2[nH]c(CC(=O)NCc3ccc(OCCCCCOc4ccc(CNC(=O)Cc5nc6cc(C(=N)N)ccc6[nH]5)cc4)cc3)nc2c1` [Example 108], the Ki is 3.6 µM in experiment [1]; over 100 µM at Human plasma thrombin; 19 µM on Human plasma factor Xa; over 100 µM on r-tissue kallikrein; 4.3 µM on Human plasma kallikrein; 1.4 µM on Human plasma plasmin. The inhibition constant Ki in experiment [2] and in experiment [3] was over 100 µM throughout.
